The values that follow come from PubChem BioAssay (NCI).

Among the test systems are M14 melanoma; SN12C renal; SNB-78 CNS; DLD-1 colon; A549 NSCLC; SR leukemia; XF 498 CNS; NCI-H226 lung; SK-MEL-5 melanoma; HCT-116 colon; M19-MEL melanoma; MDA-MB-435; ACHN renal; DU-145 prostate; PC-3 prostate; MDA-MB-231 breast; HS 578T breast; EKVX NSCLC; SK-MEL-2 melanoma; HCC-2998 colon.
Holding throughout (test): growth of human tumour cells (NCI), 48 h

The structures appear in SMILES notation.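 Compound exposure: 48 hours, 5 concentrations, 96-well plates. TGI is the concentration that stops growth completely.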 A value given as a limit tells only on which side of the number the result lay.

In the case of `O=c1cc2cc(O)[nH]c(=O)c2c(O)[nH]1`, the TGI with M14 melanoma, in the assay on SN12C renal, in the assay on SNB-78 CNS, in the assay with DLD-1 colon, in the assay on A549 NSCLC and with SR leukemia was over 100 µM each time. Further, the TGI in the assay on XF 498 CNS, in the assay on NCI-H226 lung, with SK-MEL-5 melanoma, in the assay with HCT-116 colon and with M19-MEL melanoma was over 100 µM each time.
Consider `CC(C)(C)c1cc(C2NC(=O)NC2=O)cc(C(C)(C)C)c1O` (centres undefined), for which the TGI with M14 melanoma, in the assay on MDA-MB-435, in the assay with ACHN renal, in the assay on DU-145 prostate, in the assay with PC-3 prostate and in the assay on A549 NSCLC was over 100 µM in each case. Besides, the TGI in the assay with MDA-MB-231 breast is over 100 µM; in the assay on SR leukemia, over 100 µM; with HS 578T breast, 69.8 µM; with NCI-H226 lung it was over 100 µM; in the assay on EKVX NSCLC, over 100 µM; with HCT-116 colon, 84.5 µM. For the same compound, the TGI in the assay on SK-MEL-2 melanoma is over 100 µM.
Turning to `COc1cc(-c2coc3c(OC)c(OC4OC(COC5OC(C)C(O)C(O)C5O)C(O)C(O)C4O)c(OC)c(O)c3c2=O)cc(C)c1O` (centres undefined), the TGI is 33.1 µM in the assay on M14 melanoma; 75.2 µM with MDA-MB-435; 52.9 µM with ACHN renal; 52.7 µM in the assay with DU-145 prostate; 74.1 µM in the assay on PC-3 prostate; over 100 µM with A549 NSCLC. Besides, the TGI with MDA-MB-231 breast is over 100 µM; with HS 578T breast, 62.1 µM; with SK-MEL-5 melanoma, 26.5 µM; in the assay with EKVX NSCLC, 38 µM; in the assay with HCC-2998 colon it was 39.2 µM; with SK-MEL-2 melanoma, 59.9 µM.
For `Cc1[nH]c(=O)[nH]c(=O)c1C(=O)N(CCO)Cc1ccccc1`, the TGI was over 100 µM in the assay on M14 melanoma; over 100 µM in the assay with SN12C renal; over 100 µM with MDA-MB-435; over 100 µM in the assay with ACHN renal; over 100 µM in the assay on DU-145 prostate; 94.8 µM in the assay with PC-3 prostate. Moreover, the TGI in the assay with MDA-MB-231 breast is over 100 µM; in the assay on SR leukemia, over 100 µM; in the assay with HS 578T breast it was 41.9 µM; in the assay with NCI-H226 lung it was 43.9 µM; in the assay on EKVX NSCLC it was over 100 µM; in the assay with HCT-116 colon it was over 100 µM. Moreover, the TGI with HCC-2998 colon and in the assay on SK-MEL-2 melanoma was over 100 µM each time.
On to `CCCN1C(=O)/C(=C(/O)C(=O)OCC)C(c2ccc(OC)c(OC)c2)C1=O` (centres undefined), for which the TGI in the assay on SN12C renal, with SNB-78 CNS, with DLD-1 colon, in the assay on A549 NSCLC, with XF 498 CNS and in the assay with NCI-H226 lung was over 100 µM throughout. For the same compound, the TGI in the assay on SK-MEL-5 melanoma, in the assay with EKVX NSCLC, with HCT-116 colon, with HCC-2998 colon, in the assay with M19-MEL melanoma and with SK-MEL-2 melanoma was over 100 µM each time.
Consider `CC(=O)OC1C(O)C(C)OC(OC(=O)C2CCC3C(C2)OC2(CC(OC(=O)/C=C/c4ccccc4)C(C)CO2)C32CO2)C1OC1OC(C)C(O)C(O)C1O` (centres undefined), for which the TGI in the assay on SN12C renal was determined as 0.833 µM; with SNB-78 CNS, 0.104 µM; with DLD-1 colon, 5.69 µM; in the assay on A549 NSCLC, 1.3 µM; in the assay with XF 498 CNS, 0.126 µM; in the assay with NCI-H226 lung, 0.1 µM. The TGI with SK-MEL-5 melanoma came out at 0.0897 µM; in the assay with EKVX NSCLC, 0.246 µM; in the assay on HCT-116 colon, 0.709 µM; in the assay with HCC-2998 colon it was 0.0881 µM; with M19-MEL melanoma it was 0.0497 µM; in the assay on SK-MEL-2 melanoma, 0.0389 µM.
